Measured values as given in ChEMBL document CHEMBL4680155, “One-pot synthesis and molecular docking of some new spiropyranindol-2-one derivatives as immunomodulatory agents and in vitro antimicrobial potential with DNA gyrase inhibitor” (Eur J Med Chem, 2020).
Values after ≈ are worked out from the molar mass of the structure shown.

How the values were obtained:
Enterococcus faecalis [1] = assay: Antibacterial activity against Enterococcus faecalis ATCC 29212 assessed as diameter of inhibition zone at 0.5 mg/ml incubated for 24 hrs by agar diffusion method; format: functional; conditions: read-out: DIZ
Enterococcus faecalis [2] = assay: Antibacterial activity against Enterococcus faecalis ATCC 29212 assessed as reduction in bacterial growth incubated for 1 day by paper disk diffusion method; format: functional; conditions: ATCC 29212, 24 h
Candida albicans [3] = assay: Antifungal activity against Candida albicans ATCC 10231 assessed as reduction in bacterial growth incubated for 1 day by paper disk diffusion method; format: functional; conditions: ATCC 10231, 24 h
Pseudomonas aeruginosa [4] = assay: Antibacterial activity against multidrug resistant Pseudomonas aeruginosa ATCC BAA-2111 assessed as reduction in bacterial growth incubated for 1 day by paper disk diffusion method; format: functional; conditions: ATCC BAA-2111, 24 h
Staphylococcus aureus [5] = assay: Antibacterial activity against Staphylococcus aureus ATCC 29213 assessed as diameter of inhibition zone at 0.5 mg/ml incubated for 24 hrs by agar diffusion method; format: functional; conditions: read-out: DIZ
Aspergillus brasiliensis [6] = assay: Antifungal activity against Aspergillus brasiliensis ATCC 16404 assessed as diameter of inhibition zone at 0.5 mg/ml incubated for 72 hrs by agar diffusion method; format: functional; conditions: read-out: DIZ
Candida albicans [7] = assay: Antifungal activity against Candida albicans ATCC 10231 assessed as diameter of inhibition zone at 0.5 mg/ml incubated for 24 hrs by agar diffusion method; format: functional; conditions: read-out: DIZ
Staphylococcus aureus [8] = assay: Antibacterial activity against multidrug resistant Staphylococcus aureus ATCC 33591 assessed as diameter of inhibition zone at 0.5 mg/ml incubated for 24 hrs by agar diffusion method; format: functional; conditions: read-out: DIZ
Escherichia coli [9] = assay: Bactericidal activity against Escherichia coli ATCC 25922 incubated for 24 hrs followed by transferring to freshly prepared broth medium and measured after 24 hrs by broth microdilution assay; format: functional; conditions: time 48 hrs
Escherichia coli [10] = assay: Bactericidal activity against Escherichia coli ATCC BAA-196 incubated for 24 hrs followed by transferring to freshly prepared broth medium and measured after 24 hrs by broth microdilution assay; format: functional; conditions: time 48 hrs
Staphylococcus aureus [11] = assay: Bactericidal activity against Staphylococcus aureus ATCC 43300 incubated for 24 hrs followed by transferring to freshly prepared broth medium and measured after 24 hrs by broth microdilution assay; format: functional; conditions: time 48 hrs
Pseudomonas aeruginosa [12] = assay: Antibacterial activity against multidrug resistant Pseudomonas aeruginosa ATCC BAA-2111 assessed as diameter of inhibition zone at 0.5 mg/ml incubated for 24 hrs by agar diffusion method; format: functional; conditions: read-out: DIZ
Escherichia coli [13] = assay: Antibacterial activity against multidrug resistant Escherichia coli ATCC BAA-196 assessed as diameter of inhibition zone at 0.5 mg/ml incubated for 24 hrs by agar diffusion method; format: functional; conditions: read-out: DIZ
Pseudomonas aeruginosa [14] = assay: Bactericidal activity against Pseudomonas aeruginosa ATCC BAA-2111 incubated for 24 hrs followed by transferring to freshly prepared broth medium and measured after 24 hrs by broth microdilution assay; format: functional; conditions: time 48 hrs
Staphylococcus aureus [15] = assay: Antibacterial activity against multidrug resistant Staphylococcus aureus ATCC 43300 assessed as diameter of inhibition zone at 0.5 mg/ml incubated for 24 hrs by agar diffusion method; format: functional; conditions: read-out: DIZ
Staphylococcus aureus [16] = assay: Antibacterial activity against Staphylococcus aureus ATCC 29213 assessed as reduction in bacterial growth incubated for 1 day by paper disk diffusion method; format: functional; conditions: ATCC 29213, 24 h
Staphylococcus aureus [17] = assay: Bactericidal activity against Staphylococcus aureus ATCC 29213 incubated for 24 hrs followed by transferring to freshly prepared broth medium and measured after 24 hrs by broth microdilution assay; format: functional; conditions: time 48 hrs
Escherichia coli [18] = assay: Antibacterial activity against multidrug resistant Escherichia coli ATCC BAA-196 assessed as reduction in bacterial growth incubated for 1 day by paper disk diffusion method; format: functional; conditions: ATCC BAA-196, 24 h
Aspergillus brasiliensis [19] = assay: Fungicidal activity against Aspergillus brasiliensis ATCC 16404 incubated for 72 hrs followed by transferring to freshly prepared broth medium and measured after 24 hrs by broth microdilution assay; format: functional; conditions: time 96 hrs
Salmonella typhimurium [20] = assay: Antibacterial activity against Salmonella typhi ATCC 6539 assessed as diameter of inhibition zone at 0.5 mg/ml incubated for 24 hrs by agar diffusion method; format: functional, Salmonella enterica subsp. enterica serovar Typhimurium; conditions: Salmonella enterica, read-out: DIZ
Salmonella typhimurium [21] = assay: Antibacterial activity against Salmonella typhi ATCC 6539 assessed as reduction in bacterial growth incubated for 1 day by paper disk diffusion method; format: functional, Salmonella enterica subsp. enterica serovar Typhimurium; conditions: Salmonella enterica, ATCC 6539, 24 h
Escherichia coli [22] = assay: Antibacterial activity against Escherichia coli ATCC 25922 assessed as diameter of inhibition zone at 0.5 mg/ml incubated for 24 hrs by agar diffusion method; format: functional; conditions: read-out: DIZ
Staphylococcus aureus [23] = assay: Antibacterial activity against multidrug resistant Staphylococcus aureus ATCC 33591 assessed as reduction in bacterial growth incubated for 1 day by paper disk diffusion method; format: functional; conditions: ATCC 33591, 24 h
Neutrophil = assay: Immunomodulatory activity in human neutrophils infected with bacteria assessed as increase in bacterial killing by measuring reduced NBT incubated for 30 mins by NBT dye based spectrophotometry; format: functional; parameters: concentration or dose not given beside the values; conditions: 0.5 h
Salmonella typhimurium [24] = assay: Bactericidal activity against Salmonella typhi ATCC 6539 incubated for 24 hrs followed by transferring to freshly prepared broth medium and measured after 24 hrs by broth microdilution assay; format: functional, Salmonella enterica subsp. enterica serovar […]; conditions: Salmonella enterica, time 48 hrs
Candida albicans [25] = assay: Fungicidal activity against Candida albicans ATCC 10231 incubated for 24 hrs followed by transferring to freshly prepared broth medium and measured after 24 hrs by broth microdilution assay; format: functional; conditions: time 48 hrs
Aspergillus brasiliensis [26] = assay: Antifungal activity against Aspergillus brasiliensis ATCC 16404 assessed as reduction in bacterial growth incubated for 3 days by paper disk diffusion method; format: functional; conditions: ATCC 16404, 72 h, time 3 day
DNA gyrase = DNA gyrase (Staphylococcus aureus, UniProt P0A0K8+P20831); assay: Inhibition of Staphylococcus aureus DNA gyrase using relaxed pBR322 DNA as substrate incubated for 45 mins by agarose gel electrophoresis method; format: protein-complex assay
Sequence of DNA gyrase (P0A0K8 whole entry): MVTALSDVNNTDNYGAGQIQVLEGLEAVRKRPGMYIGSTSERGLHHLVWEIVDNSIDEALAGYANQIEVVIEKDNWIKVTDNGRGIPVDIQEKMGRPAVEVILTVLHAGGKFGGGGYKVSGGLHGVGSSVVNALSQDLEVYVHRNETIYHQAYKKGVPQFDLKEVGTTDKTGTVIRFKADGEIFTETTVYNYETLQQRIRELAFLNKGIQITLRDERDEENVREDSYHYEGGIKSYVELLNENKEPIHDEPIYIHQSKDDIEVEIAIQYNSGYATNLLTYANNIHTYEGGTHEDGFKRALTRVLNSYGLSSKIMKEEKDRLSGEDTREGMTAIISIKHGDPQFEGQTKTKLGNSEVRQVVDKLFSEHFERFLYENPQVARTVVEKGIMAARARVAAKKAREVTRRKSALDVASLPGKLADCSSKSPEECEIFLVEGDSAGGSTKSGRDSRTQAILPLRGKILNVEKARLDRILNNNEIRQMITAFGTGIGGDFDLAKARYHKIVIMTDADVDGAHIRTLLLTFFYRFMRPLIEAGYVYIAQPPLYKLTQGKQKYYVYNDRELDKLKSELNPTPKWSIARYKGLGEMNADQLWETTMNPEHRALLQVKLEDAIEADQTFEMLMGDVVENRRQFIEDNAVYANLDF
Sequence of DNA gyrase (P20831 whole entry): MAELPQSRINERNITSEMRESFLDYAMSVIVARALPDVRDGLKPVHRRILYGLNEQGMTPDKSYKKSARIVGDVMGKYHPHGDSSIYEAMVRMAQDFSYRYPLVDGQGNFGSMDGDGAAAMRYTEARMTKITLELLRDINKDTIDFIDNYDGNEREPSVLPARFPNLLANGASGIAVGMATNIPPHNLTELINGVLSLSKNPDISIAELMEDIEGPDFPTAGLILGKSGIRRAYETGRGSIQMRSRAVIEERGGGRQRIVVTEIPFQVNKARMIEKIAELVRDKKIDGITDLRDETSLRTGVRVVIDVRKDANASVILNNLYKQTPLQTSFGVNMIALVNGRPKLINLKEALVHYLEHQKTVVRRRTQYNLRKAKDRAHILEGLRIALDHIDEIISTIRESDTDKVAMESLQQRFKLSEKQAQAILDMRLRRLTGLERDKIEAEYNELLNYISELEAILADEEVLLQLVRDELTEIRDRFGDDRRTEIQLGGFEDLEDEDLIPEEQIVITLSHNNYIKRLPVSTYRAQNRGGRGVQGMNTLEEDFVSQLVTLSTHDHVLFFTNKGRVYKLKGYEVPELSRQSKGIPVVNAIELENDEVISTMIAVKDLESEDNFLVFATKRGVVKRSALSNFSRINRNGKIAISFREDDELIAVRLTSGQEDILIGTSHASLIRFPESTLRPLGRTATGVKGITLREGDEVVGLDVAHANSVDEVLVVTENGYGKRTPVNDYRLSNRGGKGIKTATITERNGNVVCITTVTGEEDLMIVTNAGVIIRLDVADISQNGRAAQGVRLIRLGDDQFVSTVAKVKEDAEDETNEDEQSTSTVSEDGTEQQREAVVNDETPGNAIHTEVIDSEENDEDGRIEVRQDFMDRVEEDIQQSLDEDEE

Enterococcus faecalis [27] = assay: Bactericidal activity against Enterococcus faecalis ATCC 29212 incubated for 24 hrs followed by transferring to freshly prepared broth medium and measured after 24 hrs by broth microdilution assay; format: functional; conditions: time 48 hrs
Escherichia coli [28] = assay: Antibacterial activity against Escherichia coli ATCC 25922 assessed as reduction in bacterial growth incubated for 1 day by paper disk diffusion method; format: functional; conditions: ATCC 25922, 24 h
Staphylococcus aureus [29] = assay: Bactericidal activity against Staphylococcus aureus ATCC 33591 incubated for 24 hrs followed by transferring to freshly prepared broth medium and measured after 24 hrs by broth microdilution assay; format: functional; conditions: time 48 hrs
Staphylococcus aureus [30] = assay: Antibacterial activity against multidrug resistant Staphylococcus aureus ATCC 43300 assessed as reduction in bacterial growth incubated for 1 day by paper disk diffusion method; format: functional; conditions: ATCC 43300, 24 h

Row | Compound | zone of inhibition at 500 µg/mL (Enterococcus faecalis [1]) | MIC (Enterococcus faecalis [2]) | MIC (Candida albicans [3]) | MIC (Pseudomonas aeruginosa [4]) | zone of inhibition at 500 µg/mL (Staphylococcus aureus [5]) | zone of inhibition at 500 µg/mL (Aspergillus brasiliensis [6]) | zone of inhibition at 500 µg/mL (Candida albicans [7]) | zone of inhibition at 500 µg/mL (Staphylococcus aureus [8]) | MBC (Escherichia coli [9]) | MBC (Escherichia coli [10]) | MBC (Staphylococcus aureus [11]) | zone of inhibition at 500 µg/mL (Pseudomonas aeruginosa [12]) | zone of inhibition at 500 µg/mL (Escherichia coli [13]) | MBC (Pseudomonas aeruginosa [14]) | zone of inhibition at 500 µg/mL (Staphylococcus aureus [15]) | MIC (Staphylococcus aureus [16]) | MBC (Staphylococcus aureus [17]) | MIC (Escherichia coli [18]) | MFC (Aspergillus brasiliensis [19]) | zone of inhibition at 500 µg/mL (Salmonella typhimurium [20]) | also measured
1 | CCOC(=O)C1=C(N)OC(c2ccccc2)=C(C(=O)OCC)C12C(=O)Nc1ccc(S(=O)(=O)N3CCCCC3)cc12 (centres undefined) | 22 mm | 7.81 mg/L (≈ 13.4 µM) | 15.6 mg/L (≈ 26.9 µM) | 5.2 mg/L (≈ 8.94 µM) | 21 mm | 17 mm | 21 mm | 22 mm | 11.5 mg/L (≈ 19.8 µM) | 5.32 mg/L (≈ 9.15 µM) | 10 mg/L (≈ 17.2 µM) | 22 mm | 23 mm | 8.84 mg/L (≈ 15.2 µM) | 22 mm | 88.3 mg/L (≈ 152 µM) | 150 mg/L (≈ 258 µM) | 4.44 mg/L (≈ 7.63 µM) | 115 mg/L (≈ 197 µM) | 21 mm | MIC (Salmonella typhimurium [21]): 15.6 mg/L (≈ 26.9 µM); zone of inhibition at 500 µg/mL (Escherichia coli [22]): 23 mm; MIC (Staphylococcus aureus [23]): 6.25 mg/L (≈ 10.7 µM); Activity (Neutrophil): 139.3%; MBC (Salmonella typhimurium [24]): 21.9 mg/L (≈ 37.6 µM); MFC (Candida albicans [25]): 21.9 mg/L (≈ 37.6 µM); MIC (Aspergillus brasiliensis [26]): 71.8 mg/L (≈ 123 µM); IC50 (DNA gyrase): 23.2 µM; MBC (Enterococcus faecalis [27]): 15.6 mg/L (≈ 26.9 µM); MIC (Escherichia coli [28]): 8.88 mg/L (≈ 15.3 µM); MBC (Staphylococcus aureus [29]): 9.37 mg/L (≈ 16.1 µM); MIC (Staphylococcus aureus [30]): 6.25 mg/L (≈ 10.7 µM)
2 | CC(=O)C1=C(c2ccccc2)OC(N)=C(C#N)C12C(=O)Nc1ccc(S(=O)(=O)N3CCCCC3)cc12 (centres undefined) | 23 mm | 31.5 mg/L (≈ 62.4 µM) | 15.6 mg/L (≈ 31 µM) | 1.95 mg/L (≈ 3.86 µM) | 24 mm | 19 mm | 23 mm | 26 mm | 28.4 mg/L (≈ 56.3 µM) | 1.55 mg/L (≈ 3.07 µM) | 1.94 mg/L (≈ 3.84 µM) | 25 mm | 27 mm | 3.9 mg/L (≈ 7.73 µM) | 25 mm | 35.5 mg/L (≈ 70.5 µM) | 58.6 mg/L (≈ 116 µM) | 0.97 mg/L (≈ 1.92 µM) | 150 mg/L (≈ 298 µM) | 22 mm | MIC (Salmonella typhimurium [21]): 62.5 mg/L (≈ 124 µM); zone of inhibition at 500 µg/mL (Escherichia coli [22]): 22 mm; MIC (Staphylococcus aureus [23]): 0.78 mg/L (≈ 1.55 µM); Activity (Neutrophil): 972%; MBC (Salmonella typhimurium [24]): 87.5 mg/L (≈ 173 µM); MFC (Candida albicans [25]): 31.2 mg/L (≈ 61.9 µM); MIC (Aspergillus brasiliensis [26]): 88.3 mg/L (≈ 175 µM); IC50 (DNA gyrase): 18.1 µM; MBC (Enterococcus faecalis [27]): 43.7 mg/L (≈ 86.7 µM); MIC (Escherichia coli [28]): 17.8 mg/L (≈ 35.2 µM); MBC (Staphylococcus aureus [29]): 1.56 mg/L (≈ 3.09 µM); MIC (Staphylococcus aureus [30]): 0.97 mg/L (≈ 1.92 µM)
